The Ki is the dissociation constant of the complex between target and ligand, obtained from inhibition or displacement.

The target in one test is human Factor XIa (Homo sapiens (Human), UniProt P03951). In words: Factor XIa Assay. The test is classed as biochemical. The settings on record: purified human Factor XIa 40 pM, Z-Gly-Pro-Arg-AFC 100 μM, pH 7.4; read-out: FXIa Ki. The protocol: The effectiveness of a compound of the present invention as an inhibitor of Coagulation Factor XIa can be determined using a relevant purified serine protease, and an appropriate synthetic substrate. The rate of hydrolysis of the chromogenic or fluorogenic substrate by the relevant serine protease was measured both in the absence and presence of compounds of the present invention. Assays were conducted at room temperature or at 37° C. […] A decrease in the rate of fluorescence change in the presence of inhibitor is indicative of enzyme inhibition. Such methods are known to one skilled in the art. The results of this assay are expressed as the inhibitory constant, Ki.
Chain of human Factor XIa (P03951 388-625): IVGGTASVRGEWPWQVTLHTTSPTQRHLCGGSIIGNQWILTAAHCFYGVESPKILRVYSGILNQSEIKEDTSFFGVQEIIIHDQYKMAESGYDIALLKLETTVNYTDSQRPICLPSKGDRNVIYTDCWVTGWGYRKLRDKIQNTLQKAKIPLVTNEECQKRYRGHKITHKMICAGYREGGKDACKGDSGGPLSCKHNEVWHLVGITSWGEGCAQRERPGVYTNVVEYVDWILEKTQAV
Chain of human Factor XIa (P03951 19-387 partner): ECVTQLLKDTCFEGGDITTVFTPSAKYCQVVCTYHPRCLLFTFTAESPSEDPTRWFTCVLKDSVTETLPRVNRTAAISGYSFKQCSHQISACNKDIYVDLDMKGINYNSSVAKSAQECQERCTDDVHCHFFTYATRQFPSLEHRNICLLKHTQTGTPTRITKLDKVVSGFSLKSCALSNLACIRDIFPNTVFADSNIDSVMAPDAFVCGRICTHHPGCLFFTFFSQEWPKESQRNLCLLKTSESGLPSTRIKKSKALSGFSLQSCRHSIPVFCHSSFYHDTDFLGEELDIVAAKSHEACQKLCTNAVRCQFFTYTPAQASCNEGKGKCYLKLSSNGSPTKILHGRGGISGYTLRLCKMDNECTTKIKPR
Factor XIa determinations were made in 50 mM HEPES buffer at pH 7.4 containing 150 mM NaCl, 5 mM CaCl2, and 0.1% PEG 8000 (polyethylene glycol; JT Baker or Fisher Scientific). Determinations were made using purified human Factor XIa at a final concentration of 40 pM (Sekisui Diagnostics) and he synthetic substrate, Z-Gly-Pro-Arg-AFC, TFA salt (Sigma #C0980) at a concentration of 100 μM.
Times required to achieve equilibration between enzyme and inhibitor were determined in control experiments. Initial velocities of product formation in the absence (Vo) or presence of inhibitor (Vi) were measured. Assuming competitive inhibition, and that unity is negligible compared Km/[S], [I]/e, and [I]/e (where [S], [I], and e respectively represent the total concentrations, of substrate, inhibitor and enzyme), the equilibrium constant (Ki) for dissociation of the inhibitor from the enzyme can be obtained from the dependence of Vo/Vi on [I] shown in the following equation.
In the case of `COC(=O)Nc1ccc(C(=O)NCC(=O)N2CCC3(C2)OC(=O)Nc2ccc(Cl)cc23)cc1` (racemic) [Example 23, methyl (4-((2-(6-chloro-2-oxo-1,2-dihydrospiro[benzo[d][1,3]oxazine-4,3′-pyrrolidin]-1′-yl)-2-oxoethyl)carbamoyl)phenyl)carbamate], the Ki is 0.248 µM.

On to `COC(=O)Nc1ccc(C(=O)NC2(C(=O)N3CCC4(C3)OC(=O)Nc3ccc(Cl)cc34)Cc3ccccc3C2)cc1` (racemic) [Example 26, methyl (4-((2-(6-chloro-2-oxo-1,2-dihydrospiro[benzo[d][1,3]oxazine-4,3′-pyrrolidin]-1′-ylcarbonyl)-2,3-dihydro-1H-inden-2-yl)carbamoyl)phenyl)carbamate], for which the Ki was not below 5 µM.

Turning to `COC(=O)Nc1ccc(C(=O)NC(Cc2cc[nH]n2)C(=O)N2CCC3(C2)OC(=O)Nc2ccc(Cl)cc23)cc1` (racemic) [Example 28, methyl (4-((1-(6-chloro-2-oxo-1,2-dihydrospiro[benzo[d][1,3]oxazine-4,3′-pyrrolidin]-1′-yl)-1-oxo-3-(1H-pyrazol-3-yl)propan-2-yl)carbamoyl)phenyl)carbamate], the Ki worked out at 0.0637 µM.

For the compound `COC(=O)Nc1ccc(C(=O)N[C@@H](Cc2ccccc2)C(=O)N2CCC3(C2)NC(=O)Nc2ccc(Cl)cc23)cc1` (single isomer, unassigned) [Example 19a], the Ki amounted to 5 µM.

Take `COC(=O)Nc1ccc(C(=O)N[C@@H](Cc2ccccc2)C(=O)N2CCC3(C2)NC(=O)Nc2ccc(Cl)cc23)cc1` (single isomer, unassigned) [Example 19b]: the Ki came out at 0.708 µM.

In the case of `COC(=O)Nc1ccc(C(=O)NC(C[C@@H]2CCCO2)C(=O)N2CCC[C@@]3(C2)OC(=O)Nc2ccc(Cl)c(F)c23)cc1` (single isomer, unassigned) [Example 116B], the Ki was 0.00421 µM.

In the case of `COC(=O)Nc1ccc(C(=O)NC(C[C@H]2CCCO2)C(=O)N2CCC[C@@]3(C2)OC(=O)Nc2ccc(Cl)c(F)c23)cc1` (single isomer, unassigned) [Example 117B], the Ki came to 0.0999 µM.

Regarding `COC(=O)Nc1ccc(-c2nc(C(Cc3ccccc3)C(=O)N3CCCC4(C3)OC(=O)Nc3ccc(Cl)c(F)c34)[nH]c2Cl)cc1` (single isomer, unassigned) [Example 126A, methyl (4-(5-chloro-2-(1-(6-chloro-5-fluoro-2-oxo-1,2-dihydrospiro[benzo[d][1,3]oxazine-4,3′-piperidin]-1′-yl)-1-oxo-3-phenylpropan-2-yl)-1H-imidazol-4-yl)phenyl)carbamate], the Ki came to 1.88 µM.

On to `COC(=O)Nc1ccc(-c2nc(C(Cc3ccccc3)C(=O)N3CCCC4(C3)OC(=O)Nc3ccc(Cl)c(F)c34)[nH]c2Cl)cc1` (single isomer, unassigned) [Example 126B, methyl (4-(5-chloro-2-(1-(6-chloro-5-fluoro-2-oxo-1,2-dihydrospiro[benzo[d][1,3]oxazine-4,3′-piperidin]-1′-yl)-1-oxo-3-phenylpropan-2-yl)-1H-imidazol-4-yl)phenyl)carbamate], for which the Ki was found to be 0.154 µM.

As to `COC(=O)Nc1ccc(-c2nnc(C(Cc3ccccc3)C(=O)N3CC[C@@]4(C3)OC(=O)Nc3ccc(Cl)c(F)c34)o2)cc1` (single isomer, unassigned) [Example 129B], the Ki came to 0.321 µM.

Turning to `COC(=O)Nc1ccc(-c2ncc(C(Cc3ccccc3)C(=O)N3CCC[C@@]4(C3)OC(=O)Nc3ccc(Cl)c(F)c34)[nH]2)cc1` (single isomer, unassigned) [Example 130A], the Ki is 0.36 µM.

Consider `COC(=O)Nc1ccc(-c2ncc(C(Cc3ccccc3)C(=O)N3CCC[C@@]4(C3)OC(=O)Nc3ccc(Cl)c(F)c34)[nH]2)cc1` (single isomer, unassigned) [Example 130B], for which the Ki is more than 0.875 µM.

Take `O=C1Nc2ccc(Cl)cc2[C@@]2(CCCN(C(=O)C(Cc3ccc(F)cc3)c3nc4ccc(C(=O)O)cc4[nH]3)C2)O1` (single isomer, unassigned) [Example 132A (isomer A)]: the Ki amounted to 0.0617 µM.

Consider `O=C1Nc2ccc(Cl)cc2[C@@]2(CCCN(C(=O)C(Cc3ccc(F)cc3)c3nc4ccc(C(=O)O)cc4[nH]3)C2)O1` (single isomer, unassigned) [Example 132A (isomer B)], for which the Ki was found to be 0.449 µM.

With `COC(=O)Nc1ccc(C(=O)N[C@@H](Cc2ccccc2)C(=O)N2CC[C@]3(C2)OC(=O)Nc2ncc(Cl)cc23)cc1` [Example 1a, methyl (4-(((S)-1-((S)-6-chloro-2-oxo-1,2-dihydrospiro[pyrido[2,3-d][1,3]oxazine-4,3′-pyrrolidin]-1′-yl)-1-oxo-3-phenylpropan-2-yl)carbamoyl)phenyl)carbamate], the Ki came out at 3.47 µM.

As for `COC(=O)Nc1ccc(C(=O)N[C@@H](Cc2ccccc2)C(=O)N2CC[C@@]3(C2)OC(=O)Nc2ncc(Cl)cc23)cc1` [Example 1b, methyl (4-(((S)-1-((R)-6-chloro-2-oxo-1,2-dihydrospiro[pyrido[2,3-d][1,3]oxazine-4,3′-pyrrolidin]-1′-yl)-1-oxo-3-phenylpropan-2-yl)carbamoyl)phenyl)carbamate], the Ki came out at 0.246 µM.

As to `COC(=O)Nc1ccc(C(=O)N[C@@H](Cc2ccccc2)C(=O)N2CC[C@@]3(C2)OC(=O)Nc2ccccc23)cc1` [Example 2, methyl (4-(((S)-1-oxo-1-((R)-2-oxo-1,2-dihydrospiro[benzo[d][1,3]oxazine-4,3′-pyrrolidin]-1′-yl)-3-phenylpropan-2-yl)carbamoyl)phenyl)carbamate], the Ki is 0.22 µM.

Regarding `COC(=O)Nc1ccc(C(=O)N[C@@H](Cc2ccccc2)C(=O)N2CCC[C@]3(C2)OC(=O)Nc2ccc(Cl)cc23)cc1` [Example 3a, methyl (4-(((S)-1-((S)-6-chloro-2-oxo-1,2-dihydrospiro[benzo[d][1,3]oxazine-4,3′-piperidin]-1′-yl)-1-oxo-3-phenylpropan-2-yl)carbamoyl)phenyl)carbamate], the Ki is 0.815 µM.

For the compound `COC(=O)Nc1ccc(C(=O)N[C@@H](Cc2ccccc2)C(=O)N2CCCCC3(C2)OC(=O)Nc2ccc(Cl)cc23)cc1` (stereo partly drawn) [Example 4, methyl (4-(((2S)-1-(6′-chloro-2′-oxo-1′,2′-dihydrospiro[azepane-3,4′-benzo[d][1,3]oxazin]-1-yl)-1-oxo-3-phenylpropan-2-yl)carbamoyl)phenyl)carbamate], the Ki amounted to 4.6 µM.

For `COC(=O)Nc1ccc(C(=O)N[C@@H](Cc2ccccc2)C(=O)N2CC3(C2)OC(=O)Nc2ccc(Cl)cc23)cc1` [Example 5, (S)-methyl (4-((1-(6′-chloro-2′-oxo-1′,2′-dihydrospiro[azetidine-3,4′-benzo[d][1,3]oxazin]-1-yl)-1-oxo-3-phenylpropan-2-yl)carbamoyl)phenyl)carbamate], the Ki was more than 5 µM.

For the compound `COC(=O)Nc1ccc(C(=O)N[C@@H](Cc2ccccc2)C(=O)N2CCC[C@]3(C2)OC(=O)Nc2ccc(F)cc23)cc1` [Example 8b, methyl (4-(((S)-1-((S)-6-fluoro-2-oxo-1,2-dihydrospiro[benzo[d][1,3]oxazine-4,3′-piperidin]-1′-yl)-1-oxo-3-phenylpropan-2-yl)carbamoyl)phenyl)carbamate], the Ki amounted to 5 µM.

For the compound `COC(=O)Nc1ccc(C(=O)N[C@@H](Cc2ccccc2)C(=O)N2CCC[C@@]3(C2)OC(=O)Nc2ccc(C(F)(F)F)cc23)cc1` [Example 10, methyl (4-(((S)-1-oxo-1-((R)-2-oxo-6-(trifluoromethyl)-1,2-dihydrospiro[benzo[d][1,3]oxazine-4,3′-piperidin]-1′-yl)-3-phenylpropan-2-yl)carbamoyl)phenyl)carbamate], the Ki came out at 8.44 µM.

As to `COC(=O)Nc1ccc(C(=O)N[C@@H](Cc2ccccc2)C(=O)N2CCC[C@@]3(C2)OC(=O)Nc2cc(F)c(Cl)c(F)c23)cc1` [Example 11, methyl (4-(((S)-1-((R)-6-chloro-5,7-difluoro-2-oxo-1,2-dihydrospiro[benzo[d][1,3]oxazine-4,3′-piperidin]-1′-yl)-1-oxo-3-phenylpropan-2-yl)carbamoyl)phenyl)carbamate], the Ki amounted to 0.051 µM.

Consider `COC(=O)Nc1ccc(C(=O)N[C@@H](Cc2ccccc2)C(=O)N2CCC[C@@]3(C2)OC(=O)Nc2c(F)cc(Cl)cc23)cc1` [Example 12, methyl (4-(((S)-1-((R)-6-chloro-8-fluoro-2-oxo-1,2-dihydrospiro[benzo[d][1,3]oxazine-4,3′-piperidin]-1′-yl)-1-oxo-3-phenylpropan-2-yl)carbamoyl)phenyl)carbamate], for which the Ki stood at 0.109 µM.

Staying with this test, now noted: read-out: FXIa Ki.
In the case of `O=C1Nc2ccc(Cl)cc2C2(CCN(C(=O)[C@H](Cc3ccccc3)NC(=O)c3ccc(C(=O)O)cc3)C2)O1` (single isomer, unassigned) [Example 140a], the inhibitory constant (Ki) was 1.6 µM.

On to `O=C1Nc2ccc(Cl)cc2C2(CCN(C(=O)[C@H](Cc3ccccc3)NC(=O)c3ccc(C(=O)O)cc3)C2)O1` (single isomer, unassigned) [Example 140b], for which the Ki stood at 5 µM.

The values are drawn from patent publication US10093683B2, “Factor XIa inhibitors” (Merck Sharp & Dohme Corp., priority 2014, dated 2018).
